The values that follow come from patent US12428406B2 (PMV Pharmaceuticals, Inc., priority 2019, dated 2025).

T1 sequence (P04637 94-312, change not shown): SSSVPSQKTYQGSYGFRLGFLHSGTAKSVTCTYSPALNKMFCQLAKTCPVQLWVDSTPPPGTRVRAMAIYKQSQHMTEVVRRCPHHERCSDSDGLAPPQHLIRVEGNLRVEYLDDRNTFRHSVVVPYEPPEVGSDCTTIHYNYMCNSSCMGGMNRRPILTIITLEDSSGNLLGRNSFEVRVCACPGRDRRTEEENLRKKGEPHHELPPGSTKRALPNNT

This assay has as its target T1, p53 Y220C (Homo sapiens, UniProt P04637, Y220C).
T1 construct: The recombinant protein was a truncation mutant containing only amino acids 94-312 of p53; made in house; host or cells: E. coli
Nature of the assay: In vitro DNA binding activity assay (HTRF / TR-FRET): stabilization of p53 Y220C and increase of its DNA binding activity. Format: biochemical. To be noted: recombinant His-tagged p53 Y220C DNA binding domain (aa 94-312), biotin-labeled consensus DNA, incubated at 27° C. or 29° C. for 60 min. Put shortly:
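Compound effect on DNA binding of recombinant His-p53 Y220C (E. coli) to biotin-labeled consensus DNA, expressed as SC150, the concentration giving 50% increase versus untreated. Serial 3-fold DMSO dilutions of 4.5 mM stocks; room-temperature steps of 15 then 20 min.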
In general terms: TR-FRET usually uses a lanthanide donor and a delayed reading to cut background.
For `COc1cc(S(C)(=O)=O)ccc1NCC#Cc1cc2c(NC3CC4(COC4)C3)cccc2n1CC(F)(F)F` [Compound 20A, 2-{3-[(4-methane-sulfonyl-2-methoxy-phenyl)amino]prop-1-yn-1-yl}-N-{2-oxaspiro[3.3]heptan-6-yl}-1-(2,2,2-trifluoroethyl)-1H-indol-4-amine], the “SC150 (concentration of the compound required to increase the DNA binding activity by 50%)” value was “+ (+ = 0 μM ≤ SC150 < 0.05 μM)”.

Take `COc1cc(S(N)(=O)=O)ccc1NCC#Cc1cc2c(NC3CC4(CNC4)C3)cccc2n1CC(F)(F)F` [Compound 21A, 4-({3-[4-({2-azaspiro[3.3]heptan-6-yl}amino)-1-(2,2,2-trifluoroethyl)-1H-indol-2-yl]prop-2-yn-1-yl}amino)-3-methoxybenzene-1-sulfonamide]: the “SC150 (concentration of the compound required to increase the DNA binding activity by 50%)” value is on record as “+ (+ = 0 μM ≤ SC150 < 0.05 μM)”.

In the case of `COc1cc(S(C)(=O)=O)ccc1NCC#Cc1cc2c(NC3CC4(CNC4)C3)cccc2n1CC(F)(F)F` [Compound 22A, N-{2-azaspiro[3.3]heptan-6-yl}-2-{3-[(4-methane-sulfonyl-2-methoxy-phenyl)amino]prop-1-yn-1-yl}-1-(2,2,2-trifluoroethyl)-1H-indol-4-amine], the “SC150 (concentration of the compound required to increase the DNA binding activity by 50%)” value is “+ (+ = 0 μM ≤ SC150 < 0.05 μM)”.

For the molecule `CNC(=O)c1ccc(NCC#Cc2cc3c(N[C@H]4CC[C@H](NC)CC4)cccc3n2CC(F)(F)F)c(OC)c1` [Compound 23A, 3-methoxy-N-methyl-4-{[3-(4-{[(1R,4R)-4-(methylamino)cyclo-hexyl]amino}-1-(2,2,2-trifluoroethyl)-1H-indol-2-yl)prop-2-yn-1-yl]amino}benzamide], the “SC150 (concentration of the compound required to increase the DNA binding activity by 50%)” value is “+ (+ = 0 μM ≤ SC150 < 0.05 μM)”.

With `CNC(=O)c1ccc(NCC#Cc2cc3c(N[C@H]4CC[C@H](N)CC4)cccc3n2CC(F)(F)F)c(OC)c1` [Compound 24A, 3-methoxy-N-methyl-4-{[3-(4-{[(1R,4R)-4-aminocyclo-hexyl]amino}-1-(2,2,2-trifluoroethyl)-1H-indol-2-yl)prop-2-yn-1-yl]amino}benzamide], the “SC150 (concentration of the compound required to increase the DNA binding activity by 50%)” value is “+ (+ = 0 μM ≤ SC150 < 0.05 μM)”.

Turning to `CNC(=O)c1ccc(NCC#Cc2cc3c(N[C@H]4CC[C@@H](N)CC4)cccc3n2CC(F)(F)F)c(OC)c1` [Compound 25A, 3-methoxy-N-methyl-4-{[3-(4-{[(1S,4S)-4-aminocyclohexyl]amino}-1-(2,2,2-trifluoroethyl)-1H-indol-2-yl)prop-2-yn-1-yl]amino}benzamide], the “SC150 (concentration of the compound required to increase the DNA binding activity by 50%)” value is “+ (+ = 0 μM ≤ SC150 < 0.05 μM)”.

Turning to `COc1cc(S(C)(=O)=O)ccc1NCC#Cc1cc2c(N[C@@H]3CCCC[C@@H]3N)cccc2n1CC(F)(F)F` [Compound 28A, (1R,2S)-N^1-(2-{3-[(4-methanesulfonyl-2-methoxyphenyl)amino]prop-1-yn-1-yl}-1-(2,2,2-trifluoroethyl)-1H-indol-4-yl)cyclo-hexane-1,2-diamine], the “SC150 (concentration of the compound required to increase the DNA binding activity by 50%)” value was “++ (++ = 0.05 μM ≤ SC150 < 0.1 μM)”.

Turning to `CNC(=O)c1ccc(NCC#Cc2cc3c(N[C@H]4CC[C@](C)(O)CC4)cccc3n2CC(F)(F)F)c(OC)c1` [Compound 31A, 3-methoxy-N-methyl-4-{[3-(4-{[(1R,4R)-4-hydroxy-4-methylcyclohexyl]amino}-1-(2,2,2-trifluoroethyl)-1H-indol-2-yl)prop-2-yn-1-yl]amino}benzamide], the “SC150 (concentration of the compound required to increase the DNA binding activity by 50%)” value is “+ (+ = 0 μM ≤ SC150 < 0.05 μM)”.

For `CNC(=O)c1ccc(NCC#Cc2cc3c(N[C@H]4CC[C@@](C)(O)CC4)cccc3n2CC(F)(F)F)c(OC)c1` [Compound 32A, 3-methoxy-N-methyl-4-{[3-(4-{[(1S,4S)-4-hydroxy-4-methylcyclohexyl]amino}-1-(2,2,2-trifluoroethyl)-1H-indol-2-yl)prop-2-yn-1-yl]amino}benzamide], the “SC150 (concentration of the compound required to increase the DNA binding activity by 50%)” value is reported as “+ (+ = 0 μM ≤ SC150 < 0.05 μM)”.

For the molecule `CNC(=O)c1ccc(NCC#Cc2cc3c(NC4CCC(C#N)CC4)cccc3n2CC(F)(F)F)c(OC)c1` (stereo not drawn) [Compound 33A, 4-[(3-{4-[(4-cyanocyclohexyl)amino]-1-(2,2,2-trifluoroethyl)-1H-indol-2-yl}prop-2-yn-1-yl)amino]-3-methoxy-N-methylbenzamide], the “SC150 (concentration of the compound required to increase the DNA binding activity by 50%)” value is recorded as “+ (+ = 0 μM ≤ SC150 < 0.05 μM)”.

With `CNC(=O)c1ccc(NCC#Cc2cc3c(N[C@H]4CC[C@H](C#N)CC4)cccc3n2CC(F)(F)F)c(OC)c1` [Compound 34A, 3-methoxy-N-methyl-4-{[3-(4-{[(1R,4R)-4-cyanocyclohexyl]amino}-1-(2,2,2-trifluoroethyl)-1H-indol-2-yl)prop-2-yn-1-yl]amino}benzamide], the “SC150 (concentration of the compound required to increase the DNA binding activity by 50%)” value is recorded as “+ (+ = 0 μM ≤ SC150 < 0.05 μM)”.

Turning to `CNC(=O)c1ccc(NCC#Cc2cc3c(N[C@H]4CC[C@@H](C#N)CC4)cccc3n2CC(F)(F)F)c(OC)c1` [Compound 35A, 3-methoxy-N-methyl-4-{[3-(4-{[(1S,4S)-4-cyanocyclohexyl]amino}-1-(2,2,2-trifluoroethyl)-1H-indol-2-yl)prop-2-yn-1-yl]amino}benzamide], the “SC150 (concentration of the compound required to increase the DNA binding activity by 50%)” value was “+ (+ = 0 μM ≤ SC150 < 0.05 μM)”.

Take `COc1cc(S(C)(=O)=O)ccc1NCC#Cc1cc2c(NC3CCCC(C(=O)O)C3)cccc2n1CC(F)(F)F` (stereo not drawn) [Compound 36A, 3-[(2-{3-[(4-methane-sulfonyl-2-methoxy-phenyl)amino]prop-1-yn-1-yl}-1-(2,2,2-trifluoroethyl)-1H-indol-4-yl)amino] cyclohexane-1-carboxylic acid]: the “SC150 (concentration of the compound required to increase the DNA binding activity by 50%)” value was “+++ (+++ = 0.1 μM ≤ SC150 < 0.2 μM)”.

`COc1cc(S(C)(=O)=O)ccc1NCC#Cc1cc2c(NC3CCC(N)CC3F)cccc2n1CC(F)(F)F` (stereo not drawn) [Compound 37A]: the “SC150 (concentration of the compound required to increase the DNA binding activity by 50%)” value is “+ (+ = 0 μM ≤ SC150 < 0.05 μM)”.

With `CNC1CCC(Nc2cccc3c2cc(C#CCNc2ccc(S(C)(=O)=O)cc2OC)n3CC(F)(F)F)C(F)C1` (stereo not drawn) [Compound 39A], the “SC150 (concentration of the compound required to increase the DNA binding activity by 50%)” value was “+ (+ = 0 μM ≤ SC150 < 0.05 μM)”.

On to `COc1cc(S(C)(=O)=O)ccc1NCC#Cc1cc2c(NC3CCC(N(C)C)CC3F)cccc2n1CC(F)(F)F` (stereo not drawn) [Compound 41A], for which the “SC150 (concentration of the compound required to increase the DNA binding activity by 50%)” value is given as “+ (+ = 0 μM ≤ SC150 < 0.05 μM)”.

With `COc1cc(S(C)(=O)=O)ccc1NCC#Cc1cc2c(N[C@@H]3CCC(O)C[C@@H]3F)cccc2n1CC(F)(F)F` (stereo partly drawn) [Compound 43A, (3S,4R)-3-fluoro-4-[(2-{3-[(4-methanesulfonyl-2-methoxyphenyl)amino]prop-1-yn-1-yl}-1-(2,2,2-trifluoroethyl)-1H-indol-4-yl)amino]cyclohexan-1-ol], the “SC150 (concentration of the compound required to increase the DNA binding activity by 50%)” value was “+ (+ = 0 μM ≤ SC150 < 0.05 μM)”.

As for `COc1cc(S(N)(=O)=O)ccc1NCC#Cc1cc2c(N[C@H]3CC[C@H](N(CCO)CCO)CC3)cccc2n1CC(F)(F)F` [Compound 44A, 3-methoxy-4-{[3-(4-{[(1R,4R)-4-[bis(2-hydroxyethyl)amino]cyclohexyl]amino}-1-(2,2,2-trifluoroethyl)-1H-indol-2-yl)prop-2-yn-1-yl]amino}benzene-1-sulfonamide], the “SC150 (concentration of the compound required to increase the DNA binding activity by 50%)” value is “+ (+ = 0 μM ≤ SC150 < 0.05 μM)”.
